The target in the test is Tsr (E. coli serine chemoreceptor) (Escherichia coli, UniProt P02942). In words: in vivo FRET kinase assay. Type of test: cell-based.

Broadly, the pIC50 is the IC50 on a negative log10 scale, so that one unit is a factor of ten. Higher therefore signals a low IC50.

pIC50: −log10 of the molar value.

Sequence of Tsr (E. coli serine chemoreceptor) (P02942 whole entry): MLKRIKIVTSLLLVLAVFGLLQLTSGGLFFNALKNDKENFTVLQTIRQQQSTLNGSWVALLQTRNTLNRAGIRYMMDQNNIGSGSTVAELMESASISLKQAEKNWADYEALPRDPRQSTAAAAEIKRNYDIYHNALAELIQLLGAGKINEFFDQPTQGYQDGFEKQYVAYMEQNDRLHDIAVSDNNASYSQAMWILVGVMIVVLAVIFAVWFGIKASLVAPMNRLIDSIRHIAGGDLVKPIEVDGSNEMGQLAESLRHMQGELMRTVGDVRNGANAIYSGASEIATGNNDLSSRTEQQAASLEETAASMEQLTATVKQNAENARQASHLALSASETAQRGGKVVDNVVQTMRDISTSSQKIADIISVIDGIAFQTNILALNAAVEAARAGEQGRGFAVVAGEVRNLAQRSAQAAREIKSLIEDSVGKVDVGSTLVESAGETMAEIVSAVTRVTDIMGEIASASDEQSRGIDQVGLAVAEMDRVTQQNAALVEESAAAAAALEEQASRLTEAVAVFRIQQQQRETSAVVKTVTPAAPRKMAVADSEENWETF

Regarding `N[C@@H](CO)C(=O)O` [serine], the pIC50 was 4.74.

These data come from paper PMC9282233 (Proceedings of the National Academy of Sciences of the …, 2022).
